# Results published in patent publication US5677328A, “Ethylamino carbazole melatonergic agents” (Bristol-Myers Squibb Company, priority 1996, dated 1997).
# Test system: not given
# Experiment: not given
# Details: cited from earlier work
row,SMILES,oral bioavailability
1,"COc1ccc2[nH]cc(CCNC(C)=O)c2c1 [melatonin, N-acetyl-5-methoxytryptamine]",often low and variable

# Target: T1, human ML1a (Homo sapiens, UniProt P48039)
# T1 construct: expressed in transfected cells; host or cells: COS-1 cells (transient, DEAE-dextran), membrane homogenate
# T1 sequence (P48039 whole entry): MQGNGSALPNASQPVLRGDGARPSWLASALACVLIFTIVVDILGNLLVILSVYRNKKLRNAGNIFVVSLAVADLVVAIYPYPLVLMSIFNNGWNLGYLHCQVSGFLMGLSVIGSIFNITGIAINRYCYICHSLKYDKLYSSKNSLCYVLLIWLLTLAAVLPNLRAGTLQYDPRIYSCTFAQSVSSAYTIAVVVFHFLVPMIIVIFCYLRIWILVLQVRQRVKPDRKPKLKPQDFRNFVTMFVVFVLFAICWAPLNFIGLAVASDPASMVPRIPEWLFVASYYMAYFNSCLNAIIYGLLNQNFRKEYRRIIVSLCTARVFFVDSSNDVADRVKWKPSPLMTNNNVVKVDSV
# Experiment: Measurement of Melatonergic Binding (human ML1a binding assay, 2-[125I]-iodomelatonin, COS-1 cell membranes)
# Details: 2-[125I]-iodomelatonin 100 pM, 37° C. for 1 hour
# Experimental: Example 35 sets out the human ML1a binding assay used to test activity.
# Measurement of Melatonergic Binding
# (a) 50 mM Tris buffer containing 12.5mM MgCl2 and 2mM EDTA (pH 7.4 at 37° C.).
# (b) Wash buffer: 20mM Tris base containing 2mM MgCl2 (pH 7.4 at room temperature).
# (c) 6-Chloromelatonin (10^-5 M final concn.).
# (d) 2-[^125 I]-iodomelatonin (100 pM final concn.). Source: NEN
# 2. Membrane preparation. The cDNA (human ML1A) was introduced into COS-1 cells by the DEAE-dextran method. Three days later, the media was removed, the plates washed with phosphate buffered saline, the cells removed using Hank's balanced salt solution and pelleted. The supernatant was discarded and the pellets frozen. For preparing membrane homogenates, pellets are thawed on ice, and resuspended in TME buffer, Tris base, MgCl2, EDTA (pH 7.4 at 37° C.), supplemented with aprotinin, leupeptin, and phenylmethlysulfonylfluoride. The cells were then homogenized using a dounce homogenizer, and centrifuged. The resulting pellet was resuspended with a dounce homogenizer in TME and frozen. On the day of assay, the small aliquot was thawed on ice and resuspended in TME buffer.
# 3. Incubation: 37° C. for 1 hour. Reaction is terminated by filtration.
# The procedure was based on that disclosed in: Reppert, S. M., Weaver, D. R., and Ebisawa, R. (1994), Neuron, 13, 1177-1185 (1994).
row,SMILES,IC50
1,"COc1ccc2c3ccc(OC)cc3n(CCCNC(C)=O)c2c1 [Example 8, N-[3-(2,7-Dimethoxy-9H-carbazol-9-yl)propyl]acetamide]",< 100 nM
2,"CCC(=O)NCCCn1c2cc(OC)ccc2c2ccc(OC)cc21 [Example 9, N-[3-(2,7-Dimethoxy-9H-carbazol-9-yl)propyl]propanamide]",< 100 nM
3,"CCCC(=O)NCCCn1c2cc(OC)ccc2c2ccc(OC)cc21 [Example 10, N-[3-(2,7-Dimethoxy-9H-carbazol-9-yl)propyl]butanamide]",< 100 nM
4,"COc1ccc2c3ccc(OC)cc3n(CCCNC(=O)C(C)C)c2c1 [Example 11, N-[3-(2,7-Dimethoxy-9H-carbazol-9-yl)propyl]-2-methylpropanamide]",100 to 250 nM
5,"CCCC(=O)NCCn1c2ccccc2c2ccc(OC)cc21 [Example 15, N-[2-(2-Methoxy-9H-carbazol-9-yl)ethyl]butanamide]",< 100 nM
6,"COc1ccc2c3ccccc3n(CCNC(=O)C3CC3)c2c1 [Example 17, N-[2-(2-Methoxy-9H-carbazol-9-yl)ethyl]cyclopropanecarboxamide]",100 to 250 nM
7,"CCCC(=O)NCCn1c2cc(OC)ccc2c2ccc(OC)cc21 [Example 18, N-[2-(2,7-Dimethoxy-9H-carbazol-9-yl)ethyl]butanamide]",100 to 250 nM
8,"COc1ccc2c3ccc(OC)cc3n(CCNC(=O)C(C)C)c2c1 [Example 19, N-[2-(2,7-Dimethoxy-9H-carbazol-9-yl)ethyl]-2-methylpropanamide]",100 to 250 nM
9,"COc1ccc2c3ccc(OC)cc3n(CCNC(=O)C3CC3)c2c1 [Example 20, N-[2-(2,7-Dimethoxy-9H-carbazol-9-yl)ethyl]cyclopropanecarboxamide]",< 100 nM
10,"COc1ccc2c3ccc(OC)cc3n(CCNC(=O)CSC)c2c1 [Example 21, N-[2-(2,7-Dimethoxy-9H-carbazol-9-yl)ethyl]methylthioacetamide]",< 100 nM
11,"COc1ccc2c3ccc(OC)cc3n(CCNC(=O)CS(C)(=O)=O)c2c1 [Example 22, N-[2-(2,7-Dimethoxy-9H-carbazol-9-yl)ethyl]-2-(methanesulfonyl)acetamide]",≥ 250 nM
12,"CNC(=O)NCCn1c2cc(OC)ccc2c2ccc(OC)cc21 [Example 26, N-[2-(2,7-Dimethoxy-9H -carbazol-9-yl)ethyl]-N'-methylurea]",< 100 nM
13,"CCNC(=O)NCCn1c2cc(OC)ccc2c2ccc(OC)cc21 [Example 27, N-Ethyl-N'-[2-(2,7-dimethoxy-9H-carbazol-9-yl)ethyl]urea]",< 100 nM

# Test system: circadian rhythms in rats
# Experiment: not given
# Details: exogenous melatonin administration, Cassone et al. 1986; cited from earlier work
row,SMILES,synchronization of circadian rhythms
1,"COc1ccc2[nH]cc(CCNC(C)=O)c2c1 [melatonin, N-acetyl-5-methoxytryptamine]",found to synchronize circadian rhythms in rats
